{"source": "paper PMC10728220", "about": "“Novel 3-(pyrazol-4-yl)-2-(1H-indole-3-carbonyl)acrylonitrile derivatives induce intrinsic and extrinsic apoptotic death mediated P53 in HCT116 colon carcinoma” (Scientific Reports, 2023)", "type_in_all_cases": "cell-based, human", "key": {"[1]": {"tested_on": "p53", "assay": "RT-PCR gene expression, p53, in HCT116", "settings": "HCT116, 6.76 µg/mL, 48 h, relative to untreated control", "method": "(§1) In this current research, relative gene expression related to apoptosis should be studied well because they were very interesting to understand the effect of our selected compound on this important biological process. HCT116 cells were treated with chalcone 7f (6.76µg/mL) for 48 h, and then subjected to qPCR analysis regarding control samples. The effect of chalcone 7f on the expression level of (Bax, p53, Bcl2, and CDK4) genes was assessed using the qPCR technique. […] As indicated in this schematic diagram, the expression of apoptotic genes (Bax and P53) was enhanced by the effect of chalcone 7f to reach (3.662, and 5.435) respectively, relative to the control.\n(§2) Total RNA was extracted from the compound 7f-treated HCT116 cells and the untreated cells using the RNA Purification Kit GeneJET (Thermo scientific, ON, Canada) 0.1 µg of the extracted RNA was reverse transcribed into complementary DNA (cDNA) using High-Capacity cDNA Reverse Transcription Kit (Thermo Scientific, ON, Canada). qPCR was done using Brilliant SYBR Green qPCR master mix (Applied Biosystems, San Francisco, CA, USA) in One Step Plus Real-Time PCR System (Applied Biosystems, San Francisco, CA, USA). […] The relative gene expression was determined using the 2^−ΔΔCt equation after normalization to the expression of β-actin (housekeeping gene) (Qiagen, CA, USA)(10 pmol/µL)[85], [86]. […]"}, "[2]": {"tested_on": "Bax", "assay": "RT-PCR gene expression, Bax, in HCT116", "settings": "HCT116, 6.76 µg/mL, 48 h, relative to untreated control", "method": "as §1, §2"}, "[3]": {"tested_on": "colorectal carcinoma (HCT116)", "assay": "Cytotoxic MTT assay, HCT116", "method": "MTT protocol was performed to study the viability of cells after treatment with the tested compounds. The studied cell lines (A549 and HCT116) were cultured and grown in RPMI‐1640 media, while HFB4 cells were reserved in DMEM‐F12 media. Both media were supplemented with 10% FBS, 1% L‐glutamine, and 1% antibiotic–antimycotic mixture. The cell lines were grown at conditions of 37 °C and 5% CO2. 10 × 10^3 of A549, and HCT116 cells and the same count of normal melanocytes (HFB4) were cultured in a 96‐well plate. The selected cultured cells were kept at 37°C and 5% CO2 overnight. Then, the medium was discarded after 24 h of incubation, and 100 µL from different concentrations of the studied compounds dissolved in fresh medium without serum, with final concentrations of 100, 50, 25, 12.5, 6.25, 3.125, 1.56, and 0.78 µg/mL was added. The treated cells were then incubated for 48 h. After that, 50 µL of MTT was added into each well for 4 h for the formazan crystals to be formed. Finally, 200 µl of 10% sodium dodecyl sulphate (SDS) was added to each well, and plates were kept at room temperature overnight to allow the reaction to be stopped. The optical density at 575 nm was read using a microplate multi-well reader, and the percentage of cell viability was calculated. The dose–response curve was drawn to calculate the IC50 values for each compound using the prism GraphPad 5 program, [84]. 5 Fluorouracil, a commercial anticancer drug was used as a reference drug (positive control). Negative untreated cell control was used in this assay."}, "[4]": {"tested_on": "HCT116 cells", "assay": "Flow cytometric analysis of apoptosis (Annexin V-FITC/PI)", "settings": "HCT116, 7f treated", "method": "Chalcone 7f was selected for more investigations, in attempts to find its molecular action on cancer cells. It illustrated high and very interesting cytotoxicity toward the tested colon cancer cell line (HCT116) as mentioned in the above MTT assay data (Table 1). A flow cytometric report was utilized in this recent paper to investigate the effect of our novel acrylonitrile compound 7f on the cell cycle, HCT116 cells were treated with compound 7f at a dose of (6.76 µg/mL) for 48 h and subjected to flow cytometric analysis.\nThe percentage of apoptotic cells was detected using Annexin V-FITC kit catalogue number (#K101-25). Briefly, 5 × 10^5 of HCT116 cells were collected by centrifugation. Then, the cell pellet was suspended in 500 µL of 1X Binding Buffer. Afterward, 5 µL of Annexin V-FITC and 5 µL of propidium iodide were added to cells and kept at room temperature for 5 min in the dark[89]–[91]. Finally, the percentage of the apoptotic cells was detected by flow cytometry using the FITC signal detector(usually FL-1) and PI staining by the phycoerythrin emission signal detector (usually FL-2)."}}}
{"smiles": "N#C/C(=C\\c1cn(-c2ccccc2)nc1-c1ccc([N+](=O)[O-])cc1)C(=O)c1c[nH]c2ccccc12", "note": "[Compound 7f, (E)-2-(1H-Indole-3-carbonyl)-3-(3-(4-nitrophenyl)-1-phenyl-1H-pyrazol-4-yl)acrylonitrile]", "values": [{"measurement": "RT-PCR fold change p53", "setting": "[1]", "result": 5.435, "unit": "fold"}, {"measurement": "RT-PCR fold change Bax", "setting": "[2]", "result": 3.662, "unit": "fold"}, {"measurement": "Selectivity index (SI) = IC50 in normal cells/IC50 in tumor cells", "setting": "[3]; HFB4 versus HCT116", "result": 8.4}, {"measurement": "IC50", "setting": "[3]; Homo sapiens, HCT-116, MTT, 48 h treatment", "result": 6.76, "unit": "µg/mL"}, {"measurement": "early apoptotic induction", "setting": "[4]; control 0.32%", "result": 21.38, "unit": "%"}, {"measurement": "necrosis", "setting": "[4]; control 1.12%", "result": 6.82, "unit": "%"}]}
